Organism: Rattus norvegicus
Assay: DrugMatrix - Regimen: Daily Repeat
Assay type: toxicity, organism-based, Sprague-Dawley
Design: regimen Daily Repeat, gender Male, age 6-8 weeks
Conditions: in vivo, po, route oral GAVAGE, vehicle 100 % WATER; for ABSOLUTE BASOPHIL / ABSOLUTE EOSINOPHIL / ABSOLUTE LYMPHOCYTE / ABSOLUTE MONOCYTE / ABSOLUTE SEGMENTED NEUTROPHIL / BASOPHIL / EOSINOPHIL / ERYTHROCYTE COUNT / HEMATOCRIT / HEMOGLOBIN / LEUKOCYTE COUNT / LYMPHOCYTE / MEAN CORPUSCULAR HEMOGLOBIN / MEAN CORPUSCULAR HEMOGLOBIN CONCENTRATION / MEAN CORPUSCULAR VOLUME / MONOCYTE / NEUTROPHIL / NUCLEATED RED BLOOD CELLS / PLATELET COUNT: tissue Blood; for ALANINE AMINOTRANSFERASE / ALBUMIN / ALKALINE PHOSPHATASE / ASPARTATE AMINOTRANSFERASE / BLOOD UREA NITROGEN / CARBON DIOXIDE / CHLORIDE / CHOLESTEROL / CREATINE PHOSPHOKINASE / CREATININE / GLUCOSE / LACTATE DEHYDROGENASE / LIPASE / PHOSPHORUS / POTASSIUM / SODIUM / TOTAL BILIRUBIN / TOTAL PROTEIN / URIC ACID: tissue Plasma
[1] = 30 mg/kg, 120 h, dose level Low, time 5 day
[2] = 3000 mg/kg, 72 h, dose level High, time 3 day
[3] = 3000 mg/kg, 120 h, dose level High, time 5 day

For `CC1COc2c(N3CCN(C)CC3)c(F)cc3c(=O)c(C(=O)O)cn1c23` (centres undefined) [OFLOXACIN], the “ABSOLUTE BASOPHIL” value [1] was 0 CELLS/uL, the “ABSOLUTE EOSINOPHIL” value [1] was 0 CELLS/uL and the “ABSOLUTE LYMPHOCYTE” value [1] was 11457 CELLS/uL. The “ABSOLUTE MONOCYTE” value [1] was 48.33 CELLS/uL, the “ABSOLUTE SEGMENTED NEUTROPHIL” value [1] was 1361.33 CELLS/uL and the BASOPHIL [1] was 0%. For the same molecule, the EOSINOPHIL [1] was 0%, the “ERYTHROCYTE COUNT” value [1] was 5.63 x10E6/uL and the HEMATOCRIT [1] was 35.6%. For the same molecule, the HEMOGLOBIN [1] was 14.27 G/DL, the “LEUKOCYTE COUNT” value [1] was 12.87 x10E3/uL and the LYMPHOCYTE [1] was 89%. For the same molecule, the “MEAN CORPUSCULAR HEMOGLOBIN” value [1] was 25.37 pg, the “MEAN CORPUSCULAR HEMOGLOBIN CONCENTRATION” value [1] was 40.07 G/DL and the “MEAN CORPUSCULAR VOLUME” value [1] was 63.23 fL. The MONOCYTE [1] was 0.33%, the NEUTROPHIL [1] was 10.67% and the “NUCLEATED RED BLOOD CELLS” value [1] was 0 /100WBC. The “PLATELET COUNT” value [1] was 1227 x10E3/uL, the “ALANINE AMINOTRANSFERASE” value [1] was 50 u/L and the ALBUMIN [1] was 4.2 G/DL. The “ALKALINE PHOSPHATASE” value [1] was 350.67 u/L, the “ASPARTATE AMINOTRANSFERASE” value [1] was 79 u/L and the “BLOOD UREA NITROGEN” value [1] was 13.67 mg/dL. For the same molecule, the “CARBON DIOXIDE” value [1] was 33.67 mmol/L, the CHLORIDE [1] was 101.33 MEQ/L and the CHOLESTEROL [1] was 68.33 mg/dL. For the same molecule, the “CREATINE PHOSPHOKINASE” value [1] was 179.33 u/L, the CREATININE [1] was 0.19 mg/dL and the GLUCOSE [1] was 155.67 mg/dL. For the same molecule, the “LACTATE DEHYDROGENASE” value [1] was 144 u/L, the LIPASE [1] was 12.33 u/L and the PHOSPHORUS [1] was 11.93 mg/dL. The POTASSIUM [1] was 6.45 MEQ/L, the SODIUM [1] was 144.3 MEQ/L and the “TOTAL BILIRUBIN” value [1] was 0.13 mg/dL. The “TOTAL PROTEIN” value [1] was 5.9 G/DL, the “URIC ACID” value [1] was 1.4 mg/dL and the “ABSOLUTE BASOPHIL” value [2] was 0 CELLS/uL. The “ABSOLUTE EOSINOPHIL” value [2] was 96.33 CELLS/uL, the “ABSOLUTE LYMPHOCYTE” value [2] was 13060.67 CELLS/uL and the “ABSOLUTE MONOCYTE” value [2] was 229.33 CELLS/uL. For the same molecule, the “ABSOLUTE SEGMENTED NEUTROPHIL” value [2] was 680.33 CELLS/uL, the BASOPHIL [2] was 0% and the EOSINOPHIL [2] was 0.67%. For the same molecule, the “ERYTHROCYTE COUNT” value [2] was 5.79 x10E6/uL, the HEMATOCRIT [2] was 36.3% and the HEMOGLOBIN [2] was 14.37 G/DL. For the same molecule, the “LEUKOCYTE COUNT” value [2] was 14.07 x10E3/uL, the LYMPHOCYTE [2] was 92.67% and the “MEAN CORPUSCULAR HEMOGLOBIN” value [2] was 24.83 pg. The “MEAN CORPUSCULAR HEMOGLOBIN CONCENTRATION” value [2] was 39.57 G/DL, the “MEAN CORPUSCULAR VOLUME” value [2] was 62.7 fL and the MONOCYTE [2] was 1.67%. The NEUTROPHIL [2] was 5%, the “NUCLEATED RED BLOOD CELLS” value [2] was 0 /100WBC and the “PLATELET COUNT” value [2] was 1277.33 x10E3/uL. For the same molecule, the “ALANINE AMINOTRANSFERASE” value [2] was 62.33 u/L, the ALBUMIN [2] was 3.93 G/DL and the “ALKALINE PHOSPHATASE” value [2] was 286.33 u/L. For the same molecule, the “ASPARTATE AMINOTRANSFERASE” value [2] was 99.33 u/L, the “BLOOD UREA NITROGEN” value [2] was 13.33 mg/dL and the “CARBON DIOXIDE” value [2] was 22.33 mmol/L. The CHLORIDE [2] was 105.33 MEQ/L, the CHOLESTEROL [2] was 67 mg/dL and the “CREATINE PHOSPHOKINASE” value [2] was 1225.67 u/L. For the same molecule, the CREATININE [2] was 0.2 mg/dL, the GLUCOSE [2] was 162.33 mg/dL and the “LACTATE DEHYDROGENASE” value [2] was 245 u/L. It also gave an LIPASE [2] of 9.67 u/L, a PHOSPHORUS [2] of 11.1 mg/dL and a POTASSIUM [2] of 5.42 MEQ/L. For the same molecule, the SODIUM [2] was 145.2 MEQ/L, the “TOTAL BILIRUBIN” value [2] was 0.17 mg/dL and the “TOTAL PROTEIN” value [2] was 5.57 G/DL. For the same molecule, the “URIC ACID” value [2] was 1.57 mg/dL, the “ABSOLUTE BASOPHIL” value [3] was 0 CELLS/uL and the “ABSOLUTE EOSINOPHIL” value [3] was 0 CELLS/uL. For the same molecule, the “ABSOLUTE LYMPHOCYTE” value [3] was 16402.33 CELLS/uL, the “ABSOLUTE MONOCYTE” value [3] was 44.67 CELLS/uL and the “ABSOLUTE SEGMENTED NEUTROPHIL” value [3] was 986.33 CELLS/uL. For the same molecule, the BASOPHIL [3] was 0%, the EOSINOPHIL [3] was 0% and the “ERYTHROCYTE COUNT” value [3] was 5.74 x10E6/uL. For the same molecule, the HEMATOCRIT [3] was 35.4%, the HEMOGLOBIN [3] was 14.07 G/DL and the “LEUKOCYTE COUNT” value [3] was 17.43 x10E3/uL. The LYMPHOCYTE [3] was 93.67%, the “MEAN CORPUSCULAR HEMOGLOBIN” value [3] was 24.53 pg and the “MEAN CORPUSCULAR HEMOGLOBIN CONCENTRATION” value [3] was 39.73 G/DL. For the same molecule, the “MEAN CORPUSCULAR VOLUME” value [3] was 61.73 fL, the MONOCYTE [3] was 0.33% and the NEUTROPHIL [3] was 6%. For the same molecule, the “NUCLEATED RED BLOOD CELLS” value [3] was 0 /100WBC, the “PLATELET COUNT” value [3] was 1340 x10E3/uL and the “ALANINE AMINOTRANSFERASE” value [3] was 60.33 u/L. For the same molecule, the ALBUMIN [3] was 4.17 G/DL, the “ALKALINE PHOSPHATASE” value [3] was 195 u/L and the “ASPARTATE AMINOTRANSFERASE” value [3] was 83 u/L. The “BLOOD UREA NITROGEN” value [3] was 14.33 mg/dL, the “CARBON DIOXIDE” value [3] was 27 mmol/L and the CHLORIDE [3] was 104.33 MEQ/L. The CHOLESTEROL [3] was 67.33 mg/dL, the “CREATINE PHOSPHOKINASE” value [3] was 394.67 u/L and the CREATININE [3] was 0.22 mg/dL. For the same molecule, the GLUCOSE [3] was 147.67 mg/dL, the “LACTATE DEHYDROGENASE” value [3] was 555.67 u/L and the LIPASE [3] was 10 u/L. It also gave a PHOSPHORUS [3] of 11.37 mg/dL, a POTASSIUM [3] of 5.87 MEQ/L and an SODIUM [3] of 144.67 MEQ/L. The “TOTAL BILIRUBIN” value [3] was 0.13 mg/dL, the “TOTAL PROTEIN” value [3] was 5.97 G/DL and the “URIC ACID” value [3] was 1.67 mg/dL.

Source: ChEMBL document CHEMBL3885881, “DrugMatrix”
